Calls of active or inactive are those of the source. The calls are words filed in the database; no cut-off is given here.
What was measured:
[1] = target: T1, Protein cereblon/Signal transducer and activator of transcription 6 (Homo sapiens, UniProt P42226+Q96SW2); test: PROTAC activity at STAT6/CRBN in human MV4-11 cells assessed as reduction in STAT6 level incubated for 12 hrs by Western blot analysis; type: cell-based
[2] = target: Protein cereblon/Signal transducer and activator of transcription 1-alpha/beta (Homo sapiens) (UniProt P42224+Q96SW2); test: PROTAC activity at STAT1/CRBN in human MV4-11 cells assessed as reduction in STAT1 level at upto 10 uM incubated for 12 hrs by Western blot analysis; type: cell-based
[3] = target: Protein cereblon/Signal transducer and activator of transcription 5A/Signal transducer and activator of transcription 5B (Homo sapiens) (UniProt P42229+P51692+Q96SW2); test: PROTAC activity at STAT5/CRBN in human MV4-11 cells assessed as reduction in STAT5 level at upto 10 uM incubated for 12 hrs by Western blot analysis; type: cell-based
[4] = target: T2, Protein cereblon/Signal transducer and activator of transcription 2 (Homo sapiens) (UniProt Q96SW2+P52630); test: PROTAC activity at STAT2/CRBN in human MV4-11 cells assessed as reduction in STAT2 level at 2 uM incubated for 12 hrs by Western blot analysis relative to control; type: cell-based
[5] = target: T1, Protein cereblon/Signal transducer and activator of transcription 6; test: PROTAC activity at STAT6/CRBN in human PBMC cells assessed as reduction in STAT6 level incubated for 18 hrs by Western blot analysis; type: cell-based
[6] = target: T2, Protein cereblon/Signal transducer and activator of transcription 2 (Homo sapiens); test: PROTAC activity at STAT2/CRBN in human PBMC cells assessed as reduction in STAT2 level at 10 uM incubated for 18 hrs by Western blot analysis relative to control; type: cell-based
[7] = target: T3, Protein cereblon/Signal transducer and activator of transcription 3 (Homo sapiens) (UniProt P40763+Q96SW2); test: PROTAC activity at STAT3/CRBN in human PBMC cells assessed as reduction in STAT3 level at 10 uM incubated for 18 hrs by Western blot analysis relative to control; type: cell-based
[8] = target: T1, Protein cereblon/Signal transducer and activator of transcription 6; test: PROTAC activity at STAT6 at Y641 residue/CRBN in human L-1236 cells assessed as reduction in STAT6 level incubated for 24 hrs by Western blot analysis; type: cell-based; conditions: dose 10.0 µM
[9] = target: T1, Protein cereblon/Signal transducer and activator of transcription 6; test: PROTAC activity at STAT6 at Y641 residue/CRBN in human L-1236 cells assessed as reduction in STAT6 level at 10 uM incubated for 24 hrs by Western blot analysis; type: cell-based
[10] = target: T3, Protein cereblon/Signal transducer and activator of transcription 3 (Homo sapiens); test: PROTAC activity at STAT3/CRBN in human L-1236 cells assessed as reduction in STAT3 level at 10 uM incubated for 24 hrs by Western blot analysis; type: cell-based
[11] = Downregulation of KRT1 level in human PBMC cells at 5 uM incubated for 18 hrs by Western blot analysis relative to control; type: functional
PBMC [12] = test: Downregulation of STAT2 level in human PBMC cells at 5 uM incubated for 18 hrs by Western blot analysis relative to control; type: functional, cell-based
PBMC [13] = test: Downregulation of STAT3 level in human PBMC cells at 5 uM incubated for 18 hrs by Western blot analysis relative to control; type: functional, cell-based
PBMC [14] = test: Downregulation of STAT4 level in human PBMC cells at 5 uM incubated for 18 hrs by Western blot analysis relative to control; type: functional, cell-based
[15] = Metabolic stability in human liver microsome assessed as parent compound remaining measured at 30 mins in presence of NADPH by LC-MS/MS analysis; type: ADME; conditions: liver microsomes, read-out: Stability
[16] = Metabolic stability in dog liver microsome assessed as parent compound remaining measured at 30 mins in presence of NADPH by LC-MS/MS analysis; type: ADME, Canis lupus familiaris; conditions: liver microsomes, read-out: Stability
[17] = Metabolic stability in monkey liver microsome assessed as parent compound remaining measured at 5 mins in presence of NADPH by LC-MS/MS analysis; type: ADME, Macaca mulatta; conditions: rhesus monkey, liver microsomes, read-out: Stability
[18] = Metabolic stability in monkey liver microsome assessed as parent compound remaining measured at 45 mins in presence of NADPH by LC-MS/MS analysis; type: ADME, Macaca mulatta; conditions: rhesus monkey, liver microsomes, read-out: Stability
[19] = Metabolic stability in rat liver microsome assessed as parent compound remaining measured at 5 mins in presence of NADPH by LC-MS/MS analysis; type: ADME; conditions: liver microsomes, read-out: Stability
[20] = Metabolic stability in rat liver microsome assessed as parent compound remaining measured at 15 mins in presence of NADPH by LC-MS/MS analysis; type: ADME; conditions: liver microsomes, read-out: Stability
[21] = Metabolic stability in mouse liver microsome assessed as parent compound remaining measured at 5 mins in presence of NADPH by LC-MS/MS analysis; type: ADME; conditions: liver microsomes, read-out: Stability
[22] = Metabolic stability in mouse liver microsome assessed as parent compound remaining measured at 15 mins in presence of NADPH by LC-MS/MS analysis; type: ADME; conditions: liver microsomes, read-out: Stability
[23] = Metabolic stability in mouse liver microsome assessed as parent compound remaining measured at 30 mins in presence of NADPH by LC-MS/MS analysis; type: ADME; conditions: liver microsomes, read-out: Stability
[24] = Metabolic stability in human liver microsome assessed as half life measured upto 60 mins in presence of NADPH by LC-MS/MS analysis; type: ADME; conditions: liver microsomes
[25] = Metabolic stability in monkey liver microsome assessed as half life measured upto 60 mins in presence of NADPH by LC-MS/MS analysis; type: ADME, Macaca mulatta; conditions: rhesus monkey, liver microsomes
[26] = Metabolic stability in rat liver microsome assessed as half life measured upto 60 mins in presence of NADPH by LC-MS/MS analysis; type: ADME; conditions: liver microsomes
[27] = Metabolic stability in mouse liver microsome assessed as half life measured upto 60 mins in presence of NADPH by LC-MS/MS analysis; type: ADME; conditions: liver microsomes
[28] = Stability in human plasma assessed as parent compound remaining measured at 120 mins by LC-MS/MS analysis; type: ADME, cell-free; conditions: read-out: Stability
[29] = Stability in monkey plasma assessed as parent compound remaining measured at 30 mins by LC-MS/MS analysis; type: ADME, cell-free, Macaca mulatta; conditions: rhesus monkey, read-out: Stability
[30] = Stability in monkey plasma assessed as parent compound remaining measured at 60 mins by LC-MS/MS analysis; type: ADME, cell-free, Macaca mulatta; conditions: rhesus monkey, read-out: Stability
[31] = Stability in rat plasma assessed as parent compound remaining measured at 30 mins by LC-MS/MS analysis; type: ADME, cell-free; conditions: read-out: Stability
[32] = Stability in rat plasma assessed as parent compound remaining measured at 120 mins by LC-MS/MS analysis; type: ADME, cell-free; conditions: read-out: Stability
[33] = Stability in mouse plasma assessed as parent compound remaining measured at 30 mins by LC-MS/MS analysis; type: ADME, cell-free; conditions: read-out: Stability
[34] = Stability in mouse plasma assessed as parent compound remaining measured at 60 mins by LC-MS/MS analysis; type: ADME, cell-free; conditions: read-out: Stability
[35] = Stability in mouse plasma assessed as parent compound remaining measured at 120 mins by LC-MS/MS analysis; type: ADME, cell-free; conditions: read-out: Stability
[36] = Stability in monkey plasma assessed as half life measured upto 60 mins by LC-MS/MS analysis; type: ADME, cell-free, Macaca mulatta; conditions: rhesus monkey
[37] = target: Protein cereblon/Signal transducer and transcription activator 6 (Mus musculus) (UniProt P52633+Q8C7D2); test: In vivo PROTAC activity at STAT6/CRBN in BALB/c mouse assessed as reduction in STAT6 level in liver at 200 mg/kg, ip measured at 2 to 24 hrs by Western blot analysis; type: functional, organism-based; set-up: scale not given: the % may be the effect or the level left; conditions: time 2-24 hrs

DC50 [1]: 1 nM | Activity [2]: No effect | Activity [3]: No effect | Emax [4]: < 40% | DC50 [5]: 80 nM | Activity [6]: No effect | Activity [7]: No effect | Activity [8]: Dose-dependent-effect | Activity [9]: No effect | Activity [10]: No effect | remaining at 0.5 h [15]: 92% | remaining at 0.5 h [16]: 95% | remaining at 5 min [17]: 95% | remaining at 0.75 h [18]: 61% | remaining at 5 min [19]: 99% | remaining at 0.25 h [20]: 98% | remaining at 5 min [21]: 98% | remaining at 0.25 h [22]: 98% | remaining at 0.5 h [23]: 94% | half-life [24]: > 120 min | half-life [25]: 63 min | half-life [26]: > 120 min | half-life [27]: > 120 min | remaining at 2 h [28]: 74% | remaining at 0.5 h [29]: 91% | remaining at 1 h [30]: 81% | remaining at 0.5 h [31]: 85% | remaining at 2 h [32]: 67% | remaining at 0.5 h [33]: 96% | remaining at 1 h [34]: 91% | remaining at 2 h [35]: 79% | half-life [36]: > 120 min | Activity [37]: > 90%
Compound: CC(C)(C)[C@H](NC(=O)c1cc2cc(C(F)(F)P(=O)(O)O)ccc2s1)C(=O)N1C[C@@H](OCCCCCC#Cc2cccc3c2CN(C2CCC(=O)NC2=O)C3=O)C[C@H]1C(=O)N1CCO[C@H](c2ccccc2)C1 (some centres not stated)
Activity [11]: 59% | Activity (PBMC [12]): inactive | Activity (PBMC [13]): inactive | Activity (PBMC [14]): inactive

— ChEMBL document CHEMBL6103537 (J Med Chem, 2025)
